Assay results: patent US20080312164A1 (priority 2006, published 2008)
Where two headings read alike, the source gives them in different places. Marks after values point to notes of the source that are not given here.

Key:
Du145 cells [1] = assay: Calcein AM cytotoxicity assay, Du145; type: cell-based; conditions: Homo sapiens
Text: (§1) Five serial 1:2 dilutions were made with anhydrous DMSO at 100× the final concentration used in the assay.

Du145 cells [2] = assay: Cell Titer-Glo cytotoxicity assay, Du145; type: cell-based; conditions: Homo sapiens
Text: as §1

HCT-116 cells [3] = assay: Calcein AM cytotoxicity assay, HCT-116; type: cell-based; conditions: Homo sapiens
Text: as §1

HCT-116 cells [4] = assay: Cell Titer-Glo cytotoxicity assay, HCT-116; type: cell-based; conditions: Homo sapiens
Text: as §1

Hep3B cells [5] = assay: Calcein AM cytotoxicity assay, Hep3B; type: cell-based; conditions: Homo sapiens, 72 h
Text: as §1

Hep3B cells [6] = assay: Cell Titer-Glo cytotoxicity assay, Hep3B; type: cell-based; conditions: Homo sapiens, 72 h
Text: as §1

SF-268 cells [7] = assay: Calcein AM cytotoxicity assay, SF-268; type: cell-based; conditions: Homo sapiens
Text: as §1

SF-268 cells [8] = assay: Cell Titer-Glo cytotoxicity assay, SF-268; type: cell-based; conditions: Homo sapiens
Text: as §1

SK-OV-3 cells [9] = assay: Calcein AM cytotoxicity assay, SK-OV-3; type: cell-based; conditions: Homo sapiens
Text: as §1

SK-OV-3 cells [10] = assay: Cell Titer-Glo cytotoxicity assay, SK-OV-3; type: cell-based; conditions: Homo sapiens
Text: as §1

NCI/ADR RES cells [11] = assay: Calcein AM cytotoxicity assay, NCI/ADR-RES; type: cell-based; conditions: Homo sapiens, 72 h
Text: as §1

NCI/ADR RES cells [12] = assay: Cell Titer-Glo cytotoxicity assay, NCI/ADR-RES; type: cell-based, human; conditions: Homo sapiens, NCI/ADR-RES, 72 h
Text: as §1

NCI-H460 cells [13] = assay: Calcein AM cytotoxicity assay, NCI-H460; type: cell-based; conditions: Homo sapiens
Text: as §1

NCI-H460 cells [14] = assay: Cell Titer-Glo cytotoxicity assay, NCI-H460; type: cell-based, human
Text: as §1

MCF7 cells [15] = assay: Calcein AM cytotoxicity assay, MCF7; type: cell-based; conditions: Homo sapiens
Text: as §1

MCF7 cells [16] = assay: Cell Titer-Glo cytotoxicity assay, MCF7; type: cell-based, human; conditions: Homo sapiens
Text: as §1

[17] = system: NmuMG mouse mammary normal epithelial cells; assay: Calcein AM cytotoxicity assay, NmuMG; type: cell-based; conditions: Epithelial cell, 72 h
Text: as §1

[18] = system: NmuMG mouse mammary normal epithelial cells; assay: Cell Titer-Glo cytotoxicity assay, NmuMG; type: cell-based; conditions: Mus musculus, Epithelial cell, 72 h
Text: as §1

HT-29 cells = assay: MTT cytotoxicity assay, HT-29; type: cell-based; conditions: Homo sapiens
Text: The IC50 value for each library member represents at least twelve replicates of dose-response experiments conducted over five concentrations. […] In this assay, live cells were distinguished by the intracellular enzymatic activity that converts the cell-permeable molecule MTT to strongly colored formazan crystals, which are retained within live cells and absorb light at 570 nm.
MTT Cytotoxicity Assay. HT-29 cell lines were maintained in RPMI medium 1640 supplemented with 10% (wt/vol) FBS and 1% penicillin-streptomycin (PS) (100 units/mL and 100 μg/mL). Cells were harvested by trypsinization using 0.25% trypsin and 0.1% EDTA and plated at a density of 2,000-5,000 cells per well of each 96-well microtiter plate. Cells were grown for 24 h at 37° C., with 5% CO2/95% air in a humidified incubator to allow cell attachment to occur before compound addition. Library members were stored at −20° C. under desiccating conditions before the assay. Library member stocks (1000×) were prepared in falcon tubes (BD Biosciences). Five dilutions were made with DMSO at 1000× the final concentration used in the assay. The 1000× stocks (3 μL) were diluted with complete culture medium (3 mL). Each plate contained twelve replicates of cells treated with 0.1% DMSO in complete cell culture medium that served as an individual negative control. Library member stocks (1×, 200 μL) were added to aspirated cells and replicated twelve times on each plate. Cells were incubated with the library members for 24 h before optical density reading. Test plates were removed from the incubator and washed once in sterile PBS to remove serum containing library members. Freshly-made 10×MTT solution in sterile PBS (5 mg/mL) was diluted 1:10 in serum-free culture medium and was sterilized using a 0.2 μm filter. Diluted MTT solution (1×, 50 μL) was added to each well and the plates were incubated in the dark for 2 h. Test plates were centrifuged at 1800×g for 5 min at 4° C. using a Beckman GPR centrifuge. MTT solution was removed by aspiration and 100 μL DMSO was added to each well to lyse cells and solubilize formazan crystals. Test plates were incubated in the dark at room temperature for 10 min. Plates were read for optical density at 570 nm.
IC50 Calculations. For each library member, at least three dose-response experiments were conducted on separate plates. […] To calculate IC50, percent inhibitions were plotted as a function of log[concentration] and then fit to a four-parameter logistic model that allowed for a variable Hill slope by using XLFIT 4.1 (ID Business Solutions, Emeryville, Calif.).

human cancer cell lines = assay: Cytotoxicity across the panel of human cancer cell lines (average, high-throughput assays); type: cell-based; conditions: for IC50: read-out: Cancerous Average IC50 / Average IC50 in Cancer Cell Lines
Text: as §1

[19] = DU-145, Du145, Calcein AM, 72 h, read-out: IC50
[20] = DU-145, Du145, Cell Titer-Glo, 72 h, read-out: IC50
[21] = HCT-116, Calcein AM, 72 h, read-out: IC50
[22] = HCT-116, Cell Titer-Glo, 72 h, read-out: IC50
[23] = SF-268, Calcein AM, 72 h, read-out: IC50
[24] = SF-268, Cell Titer-Glo, 72 h, read-out: IC50
[25] = SK-OV-3, Calcein AM, 72 h, read-out: IC50
[26] = SK-OV-3, Cell Titer-Glo, 72 h, read-out: IC50
[27] = NCI-H460, Calcein AM, 72 h, read-out: IC50
[28] = Homo sapiens, NCI-H460, Cell Titer-Glo, 72 h, read-out: IC50
[29] = MCF7, Calcein AM, 72 h, read-out: IC50
[30] = MCF7, Cell Titer-Glo, 72 h, read-out: IC50
[31] = NmuMG, Calcein AM, read-out: IC50
[32] = NmuMG, Cell Titer-Glo, read-out: IC50
[33] = HT-29, MTT, 24 h, read-out: IC50
[34] = average across eight human cancer cell lines, MTT (HT-29) values excluded

`CC(C)(C)CN=C=S` [Compound 16, 1-isothiocyanato-2,2-dimethylpropane] gave an IC50 (Du145 cells [1]; [19]) of over 50 µM, an IC50 (Du145 cells [2]; [20]) of over 50 µM and an IC50 (HCT-116 cells [3]; [21]) of over 50 µM. The IC50 (HCT-116 cells [4]; [22]) was 35 µM, the IC50 (Hep3B cells [5]; Calcein AM, read-out: IC50) was over 50 µM and the IC50 (Hep3B cells [6]; Cell Titer-Glo, read-out: IC50) was over 50 µM. The IC50 (SF-268 cells [7]; [23]) was over 50 µM, the IC50 (SF-268 cells [8]; [24]) was over 50 µM and the IC50 (SK-OV-3 cells [9]; [25]) was over 50 µM. For the same compound, the IC50 (SK-OV-3 cells [10]; [26]) was over 50 µM, the IC50 (NCI/ADR RES cells [11]; Calcein AM, read-out: IC50) was over 50 µM and the IC50 (NCI/ADR RES cells [12]; Cell Titer-Glo, read-out: IC50) was over 50 µM. It also gave an IC50 (NCI-H460 cells [13]; [27]) of over 50 µM, an IC50 (NCI-H460 cells [14]; [28]) of 30.3 µM and an IC50 (MCF7 cells [15]; [29]) of over 50 µM. The IC50 (MCF7 cells [16]; [30]) was over 50 µM, the IC50 [17, 31] was 49.4 µM and the IC50 [18, 32] was 26.8 µM. For the same compound, the IC50 (HT-29 cells; [33]) was over 50 µM and the IC50 (human cancer cell lines; [34]) was over 50 µM.
With `CCCCc1ccc(N=C=S)cc1` [Compound 21, 1-butyl-4-isothiocyanatobenzene] the IC50 (Du145 cells [1]; [19]) was over 50 µM, the IC50 (Du145 cells [2]; [20]) was 48 µM and the IC50 (HCT-116 cells [3]; [21]) was over 50 µM. For the same compound, the IC50 (HCT-116 cells [4]; [22]) was 19.4 µM, the IC50 (Hep3B cells [5]; Calcein AM, read-out: IC50) was over 50 µM and the IC50 (Hep3B cells [6]; Cell Titer-Glo, read-out: IC50) was over 50 µM. It also gave an IC50 (SF-268 cells [7]; [23]) of 21.5 µM, an IC50 (SF-268 cells [8]; [24]) of 32.1 µM and an IC50 (SK-OV-3 cells [9]; [25]) of 15.9 µM. For the same compound, the IC50 (SK-OV-3 cells [10]; [26]) was 31.4 µM, the IC50 (NCI/ADR RES cells [11]; Calcein AM, read-out: IC50) was over 50 µM and the IC50 (NCI/ADR RES cells [12]; Cell Titer-Glo, read-out: IC50) was over 50 µM. The IC50 (NCI-H460 cells [13]; [27]) was over 50 µM, the IC50 (NCI-H460 cells [14]; [28]) was over 50 µM and the IC50 (NCI-H460 cells [14]; NCI-H460, Cell Titer-Glo, 72 h) was “^fNon-inhibitory in Hep3B, NCI/ADR RES, NCI-H460”. For the same compound, the IC50 (MCF7 cells [15]; [29]) was 45.8 µM, the IC50 (MCF7 cells [16]; [30]) was 45.4 µM and the IC50 [17, 31] was 71.9 µM. For the same compound, the IC50 [18, 32] was 65.7 µM, the IC50 (HT-29 cells; [33]) was over 50 µM and the “Cancerous Average IC50 / Average IC50 in Cancer Cell Lines” value (human cancer cell lines; [34]) was 35.25^f μM. For the same compound, the IC50 (human cancer cell lines; [34]) was 35.2 µM.
Work on `C[S+]([O-])CCCCN=C=S` (stereo not drawn) [Compound 2, 1-isothiocyanato-4-(methylsulfinyl) butane, reference compound] yielded an IC50 (Du145 cells [1]; DU-145, 72 h) of 5.25 µM, an IC50 (Du145 cells [2]; DU-145, 72 h) of 6.1 µM and an IC50 (HCT-116 cells [3]; HCT-116, 72 h) of 2.94 µM. It also gave an IC50 (HCT-116 cells [4]; HCT-116, 72 h) of 3.58 µM, an IC50 (Hep3B cells [5]) of 4.13 µM and an IC50 (Hep3B cells [6]) of 4.48 µM. It also gave an IC50 (SF-268 cells [7]; SF-268, 72 h) of 11 µM, an IC50 (SF-268 cells [8]; SF-268, 72 h) of 6.16 µM and an IC50 (SK-OV-3 cells [9]; SK-OV-3, 72 h) of 7.6 µM. The IC50 (SK-OV-3 cells [10]; SK-OV-3, 72 h) was 4.67 µM, the IC50 (NCI/ADR RES cells [11]) was 8.89 µM and the IC50 (NCI/ADR RES cells [12]) was 8.98 µM. For the same compound, the IC50 (NCI-H460 cells [13]; NCI-H460, 72 h) was 8.74 µM, the IC50 (NCI-H460 cells [14]; Homo sapiens, NCI-H460, 72 h) was 5.94 µM and the IC50 (MCF7 cells [15]; MCF7, 72 h) was 3.14 µM. It also gave an IC50 (MCF7 cells [16]; MCF7, 72 h) of under 3.13 µM, an IC50 [17] of 6.86 µM and an IC50 [18] of 6.59 µM. For the same compound, the IC50 (HT-29 cells; HT-29, 24 h) was 45.2 µM, the “selectivity for cancer cells over NmuMG cells” value (human cancer cell lines) was 1.3 fold and the IC50 (human cancer cell lines; Homo sapiens) was 5.26 µM.
